Results as given in PubChem BioAssay AID2060341 (Molecular Pharmacology Branch, DTP, NCI, 2025).
Several values for one entry are separate records, joined by “and”; a condition that tells them apart may be missing. Identical values can stand only once.

Test system: 327498-153-R-J2-PDC multicell spheroid viability
Test: Anticancer human tumor 327498-153-R-J2-PDC patient-derived uterine carcinosarcoma cell line growth inhibition [IpAb]
Details: for viability, T/C: stronger effect = lower value
How it was run: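 Combinations with ipatasertib or abemaciclib were tested on tumour spheroids holding HUVEC (25%) and MSC (15%) alongside 60% malignant cells. Top concentration was at or near clinical Cmax (10 microM if undefined), descending in half-log steps.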

[1] = curve of first compound, second compound 0.01 µM
[2] = curve of first compound, second compound 0.0316 µM
[3] = curve of first compound, second compound 0.1 µM
[4] = curve of first compound, second compound 0.316 µM
[5] = curve of first compound, second compound 1 µM
[6] = second compound 0.01 µM, first compound 0.0316 µM
[7] = second compound 0.01 µM, first compound 0.1 µM
[8] = second compound 0.01 µM, first compound 0.316 µM
[9] = second compound 0.01 µM, first compound 1 µM
[10] = second compound 0.0316 µM, first compound 0.0316 µM
[11] = second compound 0.0316 µM, first compound 0.1 µM
[12] = second compound 0.0316 µM, first compound 0.316 µM
[13] = second compound 0.0316 µM, first compound 1 µM
[14] = second compound 0.1 µM, first compound 0.0316 µM
[15] = second compound 0.1 µM, first compound 0.1 µM
[16] = second compound 0.1 µM, first compound 0.316 µM
[17] = second compound 0.1 µM, first compound 1 µM
[18] = second compound 0.316 µM, first compound 0.0316 µM
[19] = second compound 0.316 µM, first compound 0.1 µM
[20] = second compound 0.316 µM, first compound 0.316 µM
[21] = second compound 0.316 µM, first compound 1 µM
[22] = second compound 1 µM, first compound 0.0316 µM
[23] = second compound 1 µM, first compound 0.1 µM
[24] = second compound 1 µM, first compound 0.316 µM
[25] = second compound 1 µM, first compound 1 µM
[26] = second compound 0.01 µM, first compound 3.16 µM
[27] = second compound 0.01 µM, first compound 10 µM
[28] = second compound 0.0316 µM, first compound 3.16 µM
[29] = second compound 0.0316 µM, first compound 10 µM
[30] = second compound 0.1 µM, first compound 3.16 µM
[31] = second compound 0.1 µM, first compound 10 µM
[32] = second compound 0.316 µM, first compound 3.16 µM
[33] = second compound 0.316 µM, first compound 10 µM
[34] = second compound 1 µM, first compound 3.16 µM
[35] = second compound 1 µM, first compound 10 µM
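Further: spheroids exposed to agents for 7 days.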
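Wherever viability, T/C is given: 100% = DMSO vehicle control viability.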

In the case of `COc1c(OCCCN2CCOCC2)ccc2c3n(c(=NC(=O)c4cnc(N)nc4)nc12)CCN3` + CCN1CCN(Cc2ccc(Nc3ncc(F)c(-c4cc(F)c5nc(C)n(C(C)C)c5c4)n3)nc2)CC1, the IC50 [1] is reported as 63.7 nM, the IC50 [2] is reported as 32.1 nM and the IC50 [3] is reported as 13.9 nM. For the same compound, the IC50 [4] was 5.63 nM, the IC50 [5] was 6.38 nM and the viability, T/C (second compound 0.01 µM, first compound 0.00316 µM) was 81.9%. It also gave a viability, T/C (second compound 0.01 µM, first compound 0.01 µM) of 78.5%, a viability, T/C [6] of 70.9% and a viability, T/C [7] of 36.3%. For the same compound, the viability, T/C [8] was 16.8%, the viability, T/C [9] was 9.29% and the viability, T/C (second compound 0.0316 µM, first compound 0.00316 µM) was 70.9%. It also gave a viability, T/C (second compound 0.0316 µM, first compound 0.01 µM) of 60.8%, a viability, T/C [10] of 52.5% and a viability, T/C [11] of 24.9%. It also gave a viability, T/C [12] of 12.4%, a viability, T/C [13] of 8.64% and a viability, T/C (second compound 0.1 µM, first compound 0.00316 µM) of 63%. The viability, T/C (second compound 0.1 µM, first compound 0.01 µM) was 55.5%, the viability, T/C [14] was 37.4% and the viability, T/C [15] was 22.6%. It also gave a viability, T/C [16] of 12.3%, a viability, T/C [17] of 9.1% and a viability, T/C (second compound 0.316 µM, first compound 0.00316 µM) of 51.6%. For the same compound, the viability, T/C (second compound 0.316 µM, first compound 0.01 µM) was 48.6%, the viability, T/C [18] was 38% and the viability, T/C [19] was 23.3%. It also gave a viability, T/C [20] of 15.3%, a viability, T/C [21] of 10.6% and a viability, T/C (second compound 1 µM, first compound 0.00316 µM) of 51.9%. It also gave a viability, T/C (second compound 1 µM, first compound 0.01 µM) of 49.2%, a viability, T/C [22] of 39.8% and a viability, T/C [23] of 26.6%. For the same compound, the viability, T/C [24] was 17.7% and the viability, T/C [25] was 10.6%.
For `Cc1nc(NC(=O)N2CCCC2C(N)=O)sc1-c1ccnc(C(C)(C)C(F)(F)F)c1` (configuration not stated), the viability, T/C (compound 0.0316 µM) was 97.9% and 110%, the viability, T/C (compound 0.1 µM) was 95.7% and 102% and the viability, T/C (compound 0.316 µM) was 90% and 98.9%. For the same compound, the viability, T/C (compound 1 µM) was 77% and 89.3%, the viability, T/C (compound 3.16 µM) was 76.2% and 80.2% and the viability, T/C (compound 10 µM) was 63% and 60.7%. It also gave an IC50 (curve of compound) of over 10000 nM.
For `CC1(C)CCC(CN2CCN(c3ccc(C(=O)NS(=O)(=O)c4ccc(NCC5CCOCC5)c([N+](=O)[O-])c4)c(Oc4cnc5[nH]ccc5c4)c3)CC2)=C(c2ccc(Cl)cc2)C1` + CCN1CCN(Cc2ccc(Nc3ncc(F)c(-c4cc(F)c5nc(C)n(C(C)C)c5c4)n3)nc2)CC1, the IC50 [1] was 5020 nM, the IC50 [2] was 5020 nM and the IC50 [3] was 4470 nM. It also gave an IC50 [4] of 3890 nM, an IC50 [5] of 3560 nM and a viability, T/C [6] of 100%. It also gave a viability, T/C [7] of 91.6%, a viability, T/C [8] of 96.6% and a viability, T/C [9] of 86.9%. It also gave a viability, T/C [26] of 78.4%, a viability, T/C [27] of 10.2% and a viability, T/C [10] of 78%. For the same compound, the viability, T/C [11] was 75.8%, the viability, T/C [12] was 74.9% and the viability, T/C [13] was 77.2%. For the same compound, the viability, T/C [28] was 77.6%, the viability, T/C [29] was 9.98% and the viability, T/C [14] was 67.4%. For the same compound, the viability, T/C [15] was 71.5%, the viability, T/C [16] was 65.1% and the viability, T/C [17] was 75.9%. For the same compound, the viability, T/C [30] was 67.8%, the viability, T/C [31] was 8.52% and the viability, T/C [18] was 61.8%. For the same compound, the viability, T/C [19] was 54.3%, the viability, T/C [20] was 58.8% and the viability, T/C [21] was 61.4%. For the same compound, the viability, T/C [32] was 61.3%, the viability, T/C [33] was 6.66% and the viability, T/C [22] was 62.9%. The viability, T/C [23] was 60.7%, the viability, T/C [24] was 54.5% and the viability, T/C [25] was 57.8%. The viability, T/C [34] was 54.8% and the viability, T/C [35] was 9.15%.
`C=CC(=O)N1CCN(c2nc(=O)n(-c3c(C)ccnc3C(C)C)c3nc(-c4c(O)cccc4F)c(F)cc23)C(C)C1` (configuration not stated) + CCN1CCN(Cc2ccc(Nc3ncc(F)c(-c4cc(F)c5nc(C)n(C(C)C)c5c4)n3)nc2)CC1 showed an IC50 [1] of 209 nM, an IC50 [2] of under 31.6 nM and an IC50 [3] of under 31.6 nM. The IC50 [4] was under 31.6 nM, the IC50 [5] was under 31.6 nM and the viability, T/C [6] was 63.7%. For the same compound, the viability, T/C [7] was 52.8%, the viability, T/C [8] was 49% and the viability, T/C [9] was 44.5%. For the same compound, the viability, T/C [26] was 43%, the viability, T/C [27] was 42.2% and the viability, T/C [10] was 50.3%. The viability, T/C [11] was 42.7%, the viability, T/C [12] was 40% and the viability, T/C [13] was 41.5%. It also gave a viability, T/C [28] of 38%, a viability, T/C [29] of 38.4% and a viability, T/C [14] of 42.5%. The viability, T/C [15] was 38.1%, the viability, T/C [16] was 36.9% and the viability, T/C [17] was 30.7%. It also gave a viability, T/C [30] of 38.6%, a viability, T/C [31] of 35.5% and a viability, T/C [18] of 35.7%. For the same compound, the viability, T/C [19] was 33.2%, the viability, T/C [20] was 31.5% and the viability, T/C [21] was 32.8%. For the same compound, the viability, T/C [32] was 36.5%, the viability, T/C [33] was 36.8% and the viability, T/C [22] was 37%. For the same compound, the viability, T/C [23] was 36.5%, the viability, T/C [24] was 29.1% and the viability, T/C [25] was 35.5%. For the same compound, the viability, T/C [34] was 38.1% and the viability, T/C [35] was 44.1%.
